The values that follow come from PMC10647059, “Molecular Determinants of EphA2 and EphB2 Antagonism Enable the Design of Ligands with Improved Selectivity” (Journal of Chemical Information and Modeling, 2023).

Usually logD stands for lipophilicity at a set pH, counting ionised and neutral species. A low value points to lower lipophilicity. The Kd is the concentration at which binding is half-saturated.

Data set [1] addresses T1, EphB2 (Mus musculus, UniProt P54763).
T1 sequence (P54763 19-543): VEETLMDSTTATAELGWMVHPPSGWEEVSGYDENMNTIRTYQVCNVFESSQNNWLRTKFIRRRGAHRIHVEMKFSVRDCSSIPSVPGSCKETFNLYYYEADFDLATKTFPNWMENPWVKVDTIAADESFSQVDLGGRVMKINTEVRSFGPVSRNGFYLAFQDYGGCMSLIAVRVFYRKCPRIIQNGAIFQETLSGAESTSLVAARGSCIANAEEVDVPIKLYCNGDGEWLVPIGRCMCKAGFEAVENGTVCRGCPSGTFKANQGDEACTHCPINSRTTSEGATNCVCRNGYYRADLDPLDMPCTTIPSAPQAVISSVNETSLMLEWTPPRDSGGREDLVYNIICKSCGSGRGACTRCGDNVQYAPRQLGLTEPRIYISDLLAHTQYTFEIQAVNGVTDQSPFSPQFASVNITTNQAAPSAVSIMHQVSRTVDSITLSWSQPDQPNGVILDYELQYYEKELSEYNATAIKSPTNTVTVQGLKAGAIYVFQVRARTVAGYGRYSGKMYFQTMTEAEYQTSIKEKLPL
Kind of data set: ELISA binding assay: displacement and saturation of biotinylated ephrin-B1-Fc on immobilized EphB2. Particulars: data not shown. For orientation: In an ELISA, binding on a coated surface is turned into a signal by an enzyme label.

A short description of data set [2]: Rat liver microsome stability assay. The class given is in vitro ADME. The settings on record: liver microsomes, pH 7.4, 60 min at 37 °C, NADPH-generating system, read-out: compound recovery at 60 min in rat liver microsomes. How it is done: Experiments were performed as previously described.[59]
The test system of data set [3] is U251 GBM cell line. Kind of data set: MTT cell viability/proliferation assay on U251 glioblastoma cell line. The settings on record: 30 μM, continuous exposure, time course vs control DMSO 0.3%. Format: cell-based. How it is done: Figure 12 reports the time course of cell growth compared to the control (DMSO 0.3% solution) in the presence of a compound concentration of 30 μM. […] Although additional investigations will be required to confirm this promising behavior, it could be speculated that the higher antiproliferative activity of UniPR1449 compared to that of […], and the reference antagonist UniPR1331, is due to its peculiar pharmacological profile at the level of Eph receptors.
Data are the means of at least three independent experiments ± standard deviation.
Figure S10. Cell viability assay performed using a MTT assay on U251 glioblastoma cell line treated with the approved drug temozolomide and the reference compound UniPR1331.

Data set [4] can be described thus: physchem. The settings on record: pH 7.4.
Procedure: Distribution coefficients (D) were measured at physiological pH by the shake-flask method at room temperature (21.0 ± 0.5 °C), employing n-octanol/50 mM MOPS buffer pH 7.4, 0.15 M KCl ionic strength as a biphasic solvent system, after mutual saturation by overnight stirring. A weighed amount of compound was dissolved in water-saturated n-octanol, a buffer was added, and the sample was stirred for 4 h to reach partition equilibrium. Partition phases were centrifuged (9000g, 10 min, 20 °C), separated, diluted with methanol, and dosed by HPLC-ESI-MS/MS.
A short description of data set [5]: Rat plasma stability assay. The settings on record: 60 min at 37 °C, 1 μM.
Procedure: Pooled plasma (400 μL) was incubated at 37 °C in the presence of 10 mM phosphate-buffered saline (PBS) pH 7.4. 5 μL of compound stock solution in DMSO (final DMSO concentration: 1%; final compound concentration: 1 μM) was added to start the rat plasma stability assay. […] At fixed time points, aliquots of 50 μL were taken, added with two volumes of CH3CN containing as internal standard the structural analogue UniPR126, centrifuged (16,000g, 5 min, 4 °C), and analyzed by HPLC-ESI-MS/MS. The responses (i.e., peak area ratios of test compound vs internal standard) were referred to the zero time-point samples (considered as 100%) to determine the percentage of remaining compound vs time.
For data set [6], the target named is T2, EphA2 (Mus musculus, UniProt Q03145). Kind of data set: ELISA binding assay: displacement and saturation of biotinylated ephrin-A1-Fc on immobilized EphA2-Fc.
T2 sequence (Q03145 with tags, fused parts or gaps limits assumed): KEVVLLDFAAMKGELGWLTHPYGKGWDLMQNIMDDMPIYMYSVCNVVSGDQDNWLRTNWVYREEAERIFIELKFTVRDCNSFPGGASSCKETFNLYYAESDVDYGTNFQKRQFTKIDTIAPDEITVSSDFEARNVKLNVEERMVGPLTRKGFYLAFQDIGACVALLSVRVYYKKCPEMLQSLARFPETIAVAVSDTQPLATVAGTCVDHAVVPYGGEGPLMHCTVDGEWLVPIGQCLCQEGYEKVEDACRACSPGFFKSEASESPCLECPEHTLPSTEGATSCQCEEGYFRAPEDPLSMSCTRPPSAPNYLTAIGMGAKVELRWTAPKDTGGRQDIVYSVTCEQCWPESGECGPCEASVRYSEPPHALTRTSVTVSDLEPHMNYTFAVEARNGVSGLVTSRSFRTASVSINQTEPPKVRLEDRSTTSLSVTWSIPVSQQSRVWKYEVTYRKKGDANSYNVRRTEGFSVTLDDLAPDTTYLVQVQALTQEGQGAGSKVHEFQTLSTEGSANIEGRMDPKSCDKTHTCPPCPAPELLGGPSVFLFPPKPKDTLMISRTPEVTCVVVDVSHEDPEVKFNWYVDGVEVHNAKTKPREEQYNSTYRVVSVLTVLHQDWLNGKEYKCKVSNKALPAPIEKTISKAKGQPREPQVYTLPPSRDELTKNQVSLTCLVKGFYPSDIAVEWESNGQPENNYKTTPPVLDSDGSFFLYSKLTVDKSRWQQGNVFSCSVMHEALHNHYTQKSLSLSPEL
Procedure: Compounds were added to the wells at proper concentrations in 0.5% DMSO and incubated at 37 °C for 1 h. Biotinylated ephrin-A1-Fc was added at 37 °C for 4 h. Data are the means of three independent experiments ± standard deviation.
The day after, wells were washed with a washing buffer (PBS 0.05% tween20, pH 7.5) and blocked with a blocking buffer solution (PBS 1% BSA) for 1 h at 37 °C. Compounds were added to the wells at a proper concentration in 0.5% DMSO and incubated at 37 °C for 1 h. […] After 4 h for displacement assays or 5 h for saturation studies, wells were washed and incubated with 100 μL/well Streptavidin-HRP (Sigma S5512) for 20 min at room temperature. Then, wells were washed again with a washing buffer and incubated at room temperature with 0.1 mg/mL tetramethylbenzidine (Sigma T2885) reconstituted in stable peroxide buffer (0,05 M citric acid +0,05 M dibasic sodium phosphate, pH 5). The reaction was quenched with 3 N HCl. Absorbance was read at 450 nm (ELISA plate reader). The IC50 and Ki values were determined using one-site competition nonlinear regression analysis with Prism software (GraphPad Software Inc.).
In data set [7] the target is T2, EphA2. Kind of data set: Surface plasmon resonance, steady-state analysis on immobilized EphA2-Fc. The class given is binding. The settings on record: EphA2-Fc on CM4 sensorchip; ± standard deviation; read-out: KD (SPR, steady-state). As to the method: Increasing concentrations of the two compounds were injected over EphA2-Fc immobilized on the surface of a CM SPR4 sensorchip and evaluated for their interaction.
Surface plasmon resonance (SPR) measurements were performed on a BIAcore X100 instrument, using a carboxyl-methyl-dextran-coated sensorchip (CM4, GE-Healthcare).
Background: Surface plasmon resonance follows binding to a sensor surface in real time, without labels.

For `C[C@H](CCC(=O)N[C@H](CC(=O)O)Cc1c[nH]c2ccccc12)[C@H]1CCC2C3CC=C4C[C@@H](O)CC[C@]4(C)C3CC[C@@]21C` (stereo partly drawn) [UniPR1447, N-(3β-hydroxy-Δ^5-cholen-24-oyl)-L-β-homotryptophan], in data set [1], the “reversibility of binding to EphB2” value is listed as “fully reversible”. The remaining at 60 min, 1 μM in data set [2] was found to be 40.3%. Further, the “effect on U251 cell growth (MTT)” value in data set [3] was “did not significantly affect U251 growth”. Besides, the pH-dependent lipophilicity (logD) at 4 h in data set [4] worked out at 4.6 ± 0.1. The “stability in rat plasma” value in data set [5] is “stable”.

For `CC(CCC(=O)NC(CC(=O)O)Cc1cn(S(=O)(=O)c2ccccc2)c2ccccc12)C1CCC2C3CC=C4CC(O)CCC4(C)C3CCC12C` [UniPR1449, N-(3β-hydroxy-Δ^5-cholen-24-oyl)-1-benzensulfonyl-L-β-homotryptophan], the “reversibility of binding to EphA2” value in data set [6] (50 μM compound, with or without washing three times with PBS before ephrin-A1-Fc) is on record as “reversible”. Moreover, the Ki in data set [6] (read-out: Ki for EphA2 (saturation curves of ephrin-A1-Fc, nonlinear regression)) was found to be 2200 nM. Also, the Kd in data set [7] amounted to 3800 ± 2400 nM. Besides, in data set [2], the remaining at 60 min, 1 μM is 62.2%. Further, the “effect on U251 cell growth (MTT)” value in data set [3] is “fully blocked GBM growth”. Besides, in data set [4], the logD at 4 h came out at 4.7 ± 0.11. Besides, the “stability in rat plasma” value in data set [5] is listed as “stable”.
